The structures appear in SMILES notation. Where two headings read alike, the source gives them in different places. Some results are limits rather than exact numbers.

We go through 14 molecules from patent US5292737A, “N,N'-bis(sulfonamido)-2-amino-4-iminonaphthalen-1-ones and N,N'-bis(amido)-2-amino-4-iminonaphthalen-1-ones” (Sphinx Pharmaceuticals Corporation, priority 1992, dated 1994).

The target in one assay is T1, PKC isoenzyme γ (Homo sapiens, UniProt P05129).
T1 construct: made in house; host or cells: baculovirus-insect cell expression system
In words: Protein kinase C inhibition assay, PKC isoenzyme γ. Type of assay: biochemical. The settings on record: read-out: IC50 PKC γ. How it is done:
A protein kinase C (PKC) assay is designed to duplicate the in vivo conditions required for protein kinase C function. Therefore, pH, salt and cofactor concentrations are similar to physiologic levels. Either lysine rich histone H1 (H1) or Myelin basic protein (Mbp) are used in the assay as the phosphorylation acceptor-protein because they are readily available and serve as good substrates for protein kinase C. Enzyme was prepared from baculovirus-insect cell expression systems.
In the screening assay, phosphatidylserine (PS) and DAG were co-sonicated to form unilamellar and multilamellar vesicles. The concentration of lipids in the assay were suboptimal to maximize the detection potential of the assay for inhibitors or activators. Potential effector compounds were added to the assay in dimethylsulfoxide at four concentrations to give final inhibitor concentrations of 1, 10, 50, and 150 μM, respectively.
The assay was started with the addition of enzyme and stopped after 10 min by the addition of 25% trichloroacetic acid (TCA) and 1.0 mg/ml bovine serum albumin (BSA). The radioactive histone product was retained and washed on glass fiber filters that allow the unreacted P-ATP to pass through. The amount of phosphorylation was determined by measuring radioactivity with a scintillation counter. Controls were included in every assay to measure background activity in the absence of enzyme, activity in the absence of lipids, and the maximum enzyme activity with saturating levels of the activator lipids.
Results of the protein kinase C assay are shown in Table 4 in columns labeled α, βII, γ, δ, ε, and .zeta. which represent various PKC isoenzymes. Results are show as IC50, which is the concentration of test compound needed to inhibit 50% of the protein kinase C activity in controls.

The target in assay [1] is cAMP dependent protein kinase (PKA). In words: cAMP Dependent Protein Kinase (PKA) Assay. The assay is classed as biochemical. The conditions noted are these: for IC50: catalytic subunit of PKA; for effect on PKA activity: result in words. As for the experimental part: Compounds found to be inhibitors of protein kinase C were tested for inhibitory activity against cAMP dependent protein kinase (PKA). This enzyme, like protein kinase C, plays an important role in cell-cell communication and is activated by a second messenger, cAMP. Secondary screening against PKA is useful for ascertaining the selectivity of the compounds of the invention.
The catalytic subunit of PKA (Sigma Chemical Company, St. Louis, Mo.) was mixed with buffer before addition of the inhibitor in dimethylsulfoxide (DMSO). Potential inhibitor compounds were added to the assay in dimethylsulfoxide at two concentrations to give final inhibitor concentrations of 30 and 150 μM, respectively. The assay was started by the addition of ^32 P-ATP and the reaction was allowed to proceed for 10 min before stopping with 25% trichloroacetic acid (TCA) and 1.0 mg/ml bovine serum albumin (BSA). Phosphorylated protein was then isolated by filtration and the radioactivity was counted by a beta scintillation counter.

The test system of the next assay is human neutrophils. In words: Neutrophil Superoxide Anion (O2) Release Assay, PMA-stimulated. The assay is classed as cell-based. The settings on record: PMA-stimulated human neutrophils, read-out: Neutrophil Superoxide Release IC50. The source says: Phorbol-12,13-myristate acetate (PMA) stimulates O2 production in human neutrophils which in turn reduces cytochrome C. Reducing cytochrome C increases absorbance and the change in optical density (OD) is proportional to the amount of O2 produced by PMA stimulation. Inhibition is expressed as an IC50 value and is the amount of test compound that will inhibit fifty percent of the PMA-stimulated respiratory outburst, i.e. O2^31 production (Lherer et al. (1981) J. Clinical lnvest. 68:1314; Roberts et al. (1982) J. Immunological Methods 49:193).
Human donor blood in 0.38% Sodium Citrate was centrifuged for 10 minutes at 160 ×g at room temperature. Platelet-rich plasma was removed leaving the buffy coat and the red cell-enriched fraction. Saline with 0.38% Sodium Citrate was added to this fraction up to the original blood volume. The enriched blood sample was diluted 1:1 (v:v) with 3% dextran T500 (Pharmacia) in normal saline and placed in a 60 cc syringe, inverted over a beaker and allowed to settle 30 minutes at room temperature.
Leukocyte-enriched plasma was removed from the syringe, placed into 50 ml polypropylene conical centrifuge tubes and underlaid with 15-20 ml Lymphocyte Separation Medium (LSM Organon Technica). The tubes were centrifuged for 40 minutes at 500×g at room temperature. The plasma, buffy coat and LSM were aspirated off the pellets which contained red blood cells and neutrophils.
The pellets were vortexed and 10 ml ice-cold 0.2% NaCl was added to lyse the red blood cells while vortexing again for 10 seconds. Ice-cold 1.6% NaCl was added while vortexing for 10 seconds. The cells were combined from multiple tubes, centrifuged 10 min at 400×g at 4° C. This red cell lysis was repeated and the resulting neutrophil pellet was washed once in Reaction HBSS (GIBCO, HBSS with Ca^++ and Mg^++,.238% HEPES, 0.1% dextrose, 0.1% RIA grade bovine serum albumin, PH 7.2). The cells were resuspended in 1/5 the original blood volume with Reaction HBSS, counted and adjusted to 4.0×10^6 cells/ml at 4° C.
Duplicate samples of neutrophils were tested in 12×75 mm polypropylene tubes containing 0.25 ml of the neutrophil suspension. Cytochrome C mix (0.25 ml, 6.0 mg/ml cytochrome C type IV (Sigma) plus 1200 U/ml bovine liver catalase (Sigma) in Reaction HBSS described above) was added. PMA was added at 2×the final concentration in 0.5 ml of Reaction HBSS. PMA final test concentration were 0.0, 0.3, 9.0, 27.0, and 81.0 ng/ml. The tubes were vortexed and incubated for 10 minutes at 37° C. with shaking. After chilling for 5 minutes at 4° C. and centrifuging for 10 minutes at 4° C., 550×g, 0.5 ml of supernatant was removed from each tube. Normal saline (0.5 ml) was added to each 0.5 ml sample of supernatant and the absorbance of each sample was read at 550 nm on a spectrophotometer (Shimadzu). The PMA concentration which gives nearly maximal stimulation of superoxide release was determined.
The test samples of neutrophils were prepared as in the PMA dose response through addition of cytochrome C mix. Then 0.4 ml of Reaction HBSS as a control or test agent at 2.5×final test concentration was added and the tubes were vortexed and incubated for 30 minutes at 37° C. with shaking. PMA (0.1 ml) was added at a 10× concentration of the final concentration determined above. The samples were incubated for 10 minutes at 37° C. with shaking, chilled for 5 minutes at 4° C., and then centrifuged for 5 minutes at 550×g at 4° C. The supernatant (0.5 ml) was diluted with 0.5 ml normal saline as above and the absorbance was then determined at 550 nm. The percent change was calculated as follows: [formula] D-sphingosine (Sigma) used as reference standard.
Human neutrophils were first isolated according to Lherer et al. ((1981) J. Clinical Invest. 68:1314) and then tested for stimulation of superoxide anion release with phorbol--12,13-myristate acetate (PMA) in a dose-dependent manner. […]

By IC50 is commonly meant the concentration needed to halve the response being measured. As for `COc1cc(NS(=O)(=O)c2ccc(N=C3C=C(Nc4ccc(S(=O)(=O)Nc5cc(OC)nc(OC)n5)cc4)C(=O)c4ccccc43)cc2)nc(OC)n1` [Compound 6g], the IC50 was 20 µM at PKC isoenzyme γ, 47 µM in assay [1] and 1.34 µM in the assay with human neutrophils.

With `O=C1C(Nc2ccc(S(=O)(=O)Nc3ccccn3)cc2)=CC(=Nc2ccc(S(=O)(=O)Nc3ccccn3)cc2)c2ccccc21` [Compound 3i], the IC50 at PKC isoenzyme γ was 15 µM; in assay [1], > 150 µM; in the assay on human neutrophils (Homo sapiens, Neutrophil), 0.1 µM. The “effect on PKA activity” value in assay [1] is on record as “did not effect on PKA activity”.

`Cc1cc(C)nc(NS(=O)(=O)c2cc(N=C3C=C(Nc4ccc(C)c(S(=O)(=O)Nc5cc(C)cc(C)n5)c4)C(=O)c4ccccc43)ccc2C)c1` [Compound 6ag]: the IC50 was found to be 16 µM at PKC isoenzyme γ and 0.06 µM with human neutrophils. Moreover, the “effect on PKA activity” value in assay [1] was “did not effect on PKA activity”.

For `COc1ccc(NS(=O)(=O)c2ccc(N=C3C=C(Nc4ccc(S(=O)(=O)Nc5ccc(OC)nn5)cc4)C(=O)c4ccccc43)cc2)nn1` [Compound 6j], the figures for the IC50 (on PKC isoenzyme γ; in assay [1]; in the assay on human neutrophils) were 30 µM, > 150 µM and 3.33 µM, respectively. Moreover, the “effect on PKA activity” value in assay [1] was “did not effect on PKA activity”.

`Cc1cc(NS(=O)(=O)c2ccc(N=C3C=C(Nc4ccc(S(=O)(=O)Nc5cc(C)nc(C)n5)cc4)C(=O)c4ccccc43)cc2)nc(C)n1` [Compound 6d]: the IC50 is 24 µM on PKC isoenzyme γ, > 150 µM in assay [1] and 6.47 µM with human neutrophils. For the same molecule, the “effect on PKA activity” value in assay [1] was “did not effect on PKA activity”.

In the case of `O=C1C(Nc2ccc(S(=O)(=O)NCc3ccccn3)cc2)=CC(=Nc2ccc(S(=O)(=O)NCc3ccccn3)cc2)c2ccccc21` [Compound 3n], the figures for the IC50 (at PKC isoenzyme γ; in assay [1]; in the assay on human neutrophils) were 24 µM, > 150 µM and 0.22 µM, respectively. Moreover, in assay [1], the “effect on PKA activity” value was “did not effect on PKA activity”.

For the molecule `Cc1ccnc(NS(=O)(=O)c2ccc(N=C3C=C(Nc4ccc(S(=O)(=O)Nc5nccc(C)n5)cc4)C(=O)c4ccccc43)cc2)n1` [Compound 6f], the values for the IC50 (on PKC isoenzyme γ; in assay [1]; in the assay with human neutrophils) were 18 µM, 46 µM and 2.11 µM, respectively.

As for `Cc1cc(NS(=O)(=O)c2ccc(N=C3C=C(Nc4ccc(S(=O)(=O)Nc5cc(C)on5)cc4)C(=O)c4ccccc43)cc2)no1` [Compound 6a], the IC50 in assay [1] is 157 µM; in the assay on human neutrophils, 8 µM.

For `Cc1nnc(NS(=O)(=O)c2ccc(N=C3C=C(Nc4ccc(S(=O)(=O)Nc5nnc(C)s5)cc4)C(=O)c4ccccc43)cc2)s1` [Compound 3e], the IC50 came to 22 µM on PKC isoenzyme γ; 55 µM in assay [1]; 8.38 µM in the assay on human neutrophils (Homo sapiens, Neutrophil).

On to `Cc1ccnc(NS(=O)(=O)c2ccc(N=C3C=C(Nc4ccc(S(=O)(=O)Nc5nccc(C)n5)cc4)C(=O)c4ccccc43)cc2)n1` [Compound 3f], for which the IC50 on PKC isoenzyme γ is 29 µM; in assay [1], 48 µM; in the assay on human neutrophils (Homo sapiens, Neutrophil) it was 2.51 µM.

With `O=C1C(Nc2ccc(S(=O)(=O)Nc3ccc(Cl)nn3)cc2)=CC(=Nc2ccc(S(=O)(=O)Nc3ccc(Cl)nn3)cc2)c2ccccc21` [Compound 3l], the IC50 turned out to be 7 µM on PKC isoenzyme γ, 98 µM in assay [1] and 0.9 µM in the assay on human neutrophils.

`Cc1nnc(NS(=O)(=O)c2ccc(N=C3C=C(Nc4ccc(S(=O)(=O)Nc5nnc(C)s5)cc4)C(=O)c4ccccc43)cc2)s1` [Compound 6e]: the results for the IC50 (at PKC isoenzyme γ; in assay [1]; with human neutrophils) were 12 µM, 45 µM and 4.78 µM, respectively.

Turning to `Cc1cc(C)nc(NC(=O)c2ccc(N=C3C=C(Nc4ccc(C(=O)Nc5cc(C)cc(C)n5)cc4)C(=O)c4ccccc43)cc2)c1` [Compound 3ah], the IC50 at PKC isoenzyme γ stood at 70 µM; in the assay with human neutrophils (Homo sapiens, Neutrophil) it was 8.97 µM.

In the case of `COc1cc(NS(=O)(=O)c2ccc(N=C3C=C(Nc4ccc(S(=O)(=O)Nc5cc(OC)cc(OC)c5)cc4)C(=O)c4ccccc43)cc2)cc(OC)c1` [Compound 6af], the concentration for half-maximal inhibition (IC50) on PKC isoenzyme γ is 60 µM; in the assay with human neutrophils, 0.07 µM.
